Reference: patent publication US10618890B2, “Benzimidazole sulfonamide derivatives as inverse agonists of retinoid-related orphan receptor gamma (ROR gamma (T))” (GALDERMA RESEARCH & DEVELOPMENT, priority 2014, dated 2020)
Read-outs that look alike come from different tables or passages of the source.

Experiments:
[1] = molecular target: T1, hRORg (Homo sapiens, UniProt P51449); experiment: GAL4-RORγ transactivation (luciferase reporter, HG5LN HeLa line); assay type: cell-based; settings: HG5LN cells, 18 hours incubation, luciferase luminescence
T1 construct: expressed in transfected cells; host or cells: HG5LN (HeLa line with a GAL4-driven luciferase reporter)
T1 sequence (P51449 269-508 limits assumed): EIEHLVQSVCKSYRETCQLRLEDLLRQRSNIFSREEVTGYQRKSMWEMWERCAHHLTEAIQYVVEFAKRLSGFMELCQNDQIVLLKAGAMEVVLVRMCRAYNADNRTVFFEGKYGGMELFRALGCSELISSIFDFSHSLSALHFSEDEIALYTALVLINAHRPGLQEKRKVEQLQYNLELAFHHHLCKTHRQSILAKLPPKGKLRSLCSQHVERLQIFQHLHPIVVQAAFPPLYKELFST
Text: GAL4-RORγ Transactivation
The RORγ transactivation model was developed from the line HG5LN, which is a HeLa line that stably expresses a luciferase reporter gene controlled by a pentamer of the GAL4 recognition domain of yeast and of a β-globin promoter. The HG5LN line was stably transfected by the DNA-binding domain (DBD) of GAL4 fused to the ROR gamma ligand-binding domain (LBD). Molecules that inhibit the ROR gamma constitutive activity reduce the luciferase expression, thus leading to a reduction in the emitted luminescence.
The cells are seeded in 384-well plates (5000 cells in 45 μL/well of culture medium containing 10% fetal calf serum) and incubated for 4 hours at 37° C., 5% CO2. 5 μL of the test molecules (compounds described in the tables described above) are then added to each well and the plates are incubated for 18 hours at a temperature of 37° C. under 5% of CO2. 20 μL of luciferase substrate (Promega) are added to each well and the luminescence emitted is read by a microplate reader.
The luminescence units (“RLU”) are normalized by positive controls (“POS” containing a saturated concentration of N-(2,2,2-trifluoroethyl)-N-[4-[2,2,2-trifluoro-1-hydroxy-1-(trifluoromethyl)ethyl]phenyl]benzenesulfonamide) and negative controls (“NEG” containing DMSO): % inhibition=((RLU-NEG)*100)/(POS-NEG). The IC50 values are calculated from a 4-parameter logistic model using the XLFit software (IDBS).

[2] = system: IL-17A secretion by CD4+ cells; experiment: IL-17A secretion by CD4+ cells (HTRF); assay type: cell-based; settings: human CD4+ cells activated with anti-CD3 and anti-CD28, 4 days of incubation, IL-17A by HTRF, read-out: IC50 hCD4/IL17
Protocol: This model allows measurement of the effect of inhibitors on IL-17A secretion by CD4+ cells. The cells are frozen CD4+ cells (STEMCELL, #70026), isolated from peripheral human blood and activated with anti-CD3 and anti-CD28 antibodies. The amount of IL-17A secreted is measured by the TR-FRET (kit HTRF® Human Interleukin 17A (Cisbio, #64H17PEC)) technology.
The cells are rapidly thawed, resuspended in their culture medium (RPMI inactivated 10% FCS) supplemented with soluble anti-CD28 antibodies and seeded (100 000 cells/well) in 96-well plates precoated with anti-CD3 antibodies. The cells are then treated with the ranges of inhibitors to be tested (from 1000 nM to 0.05 nM, 0.1% DMSO). After 4 days of incubation, the HTRF signal is measured using a microplate reader (excitation=337 nm, λemission=620/665 nm). The ratios obtained (665/620) are normalized relative to the positive control (cells activated with anti-CD3 and anti-CD28, 0.1% DMSO). The IC50 values are calculated from a 4-parameter logistic model using the XLFit software (IDBS).

SMILES | IC50 [1] [nM] | IC50 ([2]; Homo sapiens, 96 h) [nM] | IC50 [2] [nM]
CCc1ccc(N(CC(C)C)S(=O)(=O)c2ccc3c(c2)[nH]c(=O)n3C2CCOCC2)cc1 [Compound 11, 2-oxo-1-(tetrahydropyran-4-yl)-2,3-dihydro-1H-benzimidazole-5-sulfonic acid (4-ethylphenyl)isobutylamide] | > 1000 |  | 
CCc1ccc(N(C2CCCC2)S(=O)(=O)c2ccc3c(c2)[nH]c(=O)n3CC2CCOCC2)cc1 [Compound 15, 2-oxo-1-(tetrahydropyran-4-ylmethyl)-2,3-dihydro-1H-benzimidazole-5-sulfonic acid (4-ethylphenyl)cyclopentylamide] | < 100 | < 100 | 
CCc1ccc(N(CC(C)C)S(=O)(=O)c2ccc3c(c2)[nH]c(=O)n3Cc2ccncc2)cc1 [Compound 10, 2-oxo-1-pyridin-4-ylmethyl-2,3-dihydro-1H-benzimidazole-5-sulfonic acid (4-ethylphenyl)isobutylamide] | 100 to 1000 | < 100 | 
CCc1ccc(N(CC(C)C)S(=O)(=O)c2ccc3c(c2)n(CC2CCOCC2)c(=O)n3C)cc1 [Compound 1, 1-methyl-2-oxo-3-(tetrahydropyran-4-ylmethyl)-2,3-dihydro-1H-benzimidazole-5-sulfonic acid (4-ethylphenyl)isobutylamide] | > 1000 |  | 
CCc1ccc(N(CC(C)C)S(=O)(=O)c2ccc3[nH]c(=O)n(CC4CCOCC4)c3c2)cc1 [Compound 3, 2-oxo-3-(tetrahydropyran-4-ylmethyl)-2,3-dihydro-1H-benzimidazole-5-sulfonic acid (4-ethylphenyl)isobutylamide] | 100 to 1000 | < 100 | 
CCc1ccc(N(CC(C)C)S(=O)(=O)c2ccc3c(c2)[nH]c(=O)n3CC2COC(=O)O2)cc1 (stereo not shown) [Compound 8, 2-oxo-1-(2-oxo[1,3]dioxolan-4-ylmethyl)-2,3-dihydro-1H-benzimidazole-5-sulfonic acid (4-ethylphenyl)isobutylamide] | < 100 |  | 
CCc1ccc(N(CC(C)C)S(=O)(=O)c2ccc3c(c2)[nH]c(=O)n3C2CCN(S(C)(=O)=O)CC2)cc1 [Compound 14, 1-(1-methanesulfonylpiperidin-4-yl)-2-oxo-2,3-dihydro-1H-benzimidazole-5-sulfonic acid (4-ethylphenyl)isobutylamide] | > 1000 |  | 
CCc1ccc(N(C(CC)CC)S(=O)(=O)c2ccc3c(c2)[nH]c(=O)n3CC2CCOCC2)cc1 [Compound 16, 2-oxo-1-(tetrahydropyran-4-ylmethyl)-2,3-dihydro-1H-benzimidazole-5-sulfonic acid (4-ethylphenyl)(1-ethylpropyl)amide] | < 100 | < 100 | 
CCc1ccc(N(CC(C)C)S(=O)(=O)c2ccc3c(c2)[nH]c(=O)n3CC2CCOCC2)cc1 [Compound 2, 2-oxo-1-(tetrahydropyran-4-ylmethyl)-2,3-dihydro-1H-benzimidazole-5-sulfonic acid (4-ethylphenyl)isobutylamide] | < 100 | < 100 | 
CCc1ccc(N(CC(C)C)S(=O)(=O)c2ccc3c(c2)[nH]c(=O)n3CC2CCS(=O)(=O)CC2)cc1 [Compound 20, 1-(1,1-dioxohexahydro-1λ^6-thiopyran-4-ylmethyl)-2-oxo-2,3-dihydro-1H-benzimidazole-5-sulfonic acid (4-ethylphenyl)isobutylamide] | < 100 | < 100 | 
CCc1ccc(N(CC(C)C)S(=O)(=O)c2ccc3c(c2)[nH]c(=O)n3C2CCNCC2)cc1 [Compound 13, 2-oxo-1-piperidin-4-yl-2,3-dihydro-1H-benzimidazole-5-sulfonic acid (4-ethylphenyl)isobutylamide] | > 1000 |  | 
CCc1ccc(N(CC(C)C)S(=O)(=O)c2ccc3c(c2)[nH]c(=O)n3CC2CNC(=O)O2)cc1 (stereo not shown) [Compound 9, 2-oxo-1-(2-oxooxazolidin-5-ylmethyl)-2,3-dihydro-1H-benzimidazole-5-sulfonic acid (4-ethylphenyl)isobutylamide] | > 1000 |  | 
Cc1ccc(N(CC(C)C)S(=O)(=O)c2ccc3c(c2)[nH]c(=O)n3CC2CCOCC2)c(C)c1 [Compound 17, 2-oxo-1-(tetrahydropyran-4-ylmethyl)-2,3-dihydro-1H-benzimidazole-5-sulfonic acid (2,4-dimethylphenyl)isobutylamide] | < 100 | < 100 | 
CCc1ccc(N(CC(C)C)S(=O)(=O)c2ccc3c(c2)[nH]c(=O)n3CC2COC2)cc1 [Compound 7, 1-oxetan-3-ylmethyl-2-oxo-2,3-dihydro-1H-benzimidazole-5-sulfonic acid (4-ethylphenyl)isobutylamide] | < 100 | < 100 | 
CCC(CC)N(c1ccc(C)cc1C)S(=O)(=O)c1ccc2c(c1)[nH]c(=O)n2CC1CCOCC1 [Compound 19, 2-oxo-1-(tetrahydropyran-4-ylmethyl)-2,3-dihydro-1H-benzimidazole-5-sulfonic acid (2,4-dimethylphenyl)(1-ethylpropyl)amide] | < 100 | < 100 | 
CCc1ccc(N(CC(C)C)S(=O)(=O)c2ccc3c(c2)[nH]c(=O)n3CC2(C)CCOCC2)cc1 [Compound 4, 1-(4-methyltetrahydropyran-4-ylmethyl)-2-oxo-2,3-dihydro-1H-benzimidazole-5-sulfonic acid (4-ethylphenyl)isobutylamide] | < 100 | < 100 | 
Cc1ccc(N(C2CCCC2)S(=O)(=O)c2ccc3c(c2)[nH]c(=O)n3CC2CCOCC2)c(C)c1 [Compound 18, 2-oxo-1-(tetrahydropyran-4-ylmethyl)-2,3-dihydro-1H-benzimidazole-5-sulfonic acid cyclopentyl(2,4-dimethylphenyl)amide] | < 100 | < 100 | 
CCc1ccc(N(CC(C)C)S(=O)(=O)c2ccc3[nH]c(=O)n(CC4CCOCC4)c3c2)cc1 [Compound 21, 2-oxo-3-(tetrahydropyran-4-ylmethyl)-2,3-dihydro-1H-benzimidazole-5-sulfonic acid (4-ethylphenyl)isobutylamide] | 100 to 1000 |  | 100 to 1000
CCc1ccc(N(CC(C)C)S(=O)(=O)c2ccc3c(c2)[nH]c(=O)n3CC2(F)CCOCC2)cc1 [Compound 5, 1-(4-fluorotetrahydropyran-4-ylmethyl)-2-oxo-2,3-dihydro-1H-benzimidazole-5-sulfonic acid (4-ethylphenyl)isobutylamide] | < 100 | < 100 | 
CCc1ccc(N(CC(C)C)S(=O)(=O)c2ccc3c(c2)[nH]c(=O)n3C2CCN(C(=O)OC(C)(C)C)CC2)cc1 [Compound 12, tert butyl ester of 4-{5-[(4-ethylphenyl)isobutylsulfamoyl]-2-oxo-2,3-dihydrobenzimidazol-1-yl}piperidine-1-carboxylic acid] | > 1000 |  | 
CCc1ccc(N(CC(C)C)S(=O)(=O)c2ccc3c(c2)[nH]c(=O)n3C[C@H]2[C@@H]3COC[C@@H]32)cc1 [Compound 6, 1-[(1R,5S,6S)-1-(3-oxabicyclo[3.1.0]hex-6-yl)methyl]-2-oxo-2,3-dihydro-1H-benzimidazole-5-sulfonic acid (4-ethylphenyl)isobutylamide] | < 100 |  | 
